{
  "source": "patent US20230414607A1",
  "about": "“METHODS OF TREATMENT” (BOW RIVER LLC, priority 2017, published 2023)",
  "key": {"[1]": {"assay": "Plasma ranolazine pharmacokinetics before, during and after posaconazole in normal-weight and obese subjects", "type": "in vivo, human", "conditions": "for Time the interaction persisted above an AUC GMR of 1.5: after cessation of posaconazole administration; for Time the interaction persisted above a Cmax GMR of 1.5: after cessation of posaconazole", "procedure": "Procedures. […] On study day 2, subjects received posaconazole (300 mg delayed-release tablet twice a day), and on the mornings of days 3-15, subjects received posaconazole (300 mg delayed-release tablet daily). Because posaconazole is to be taken with food,^6 subjects were fed a continental breakfast in the clinical research unit after receiving posaconazole and before discharge from the unit. […] Samples were centrifuged, and the plasma was separated and frozen at −70° C. until the time of assay of plasma posaconazole concentrations. […] Plasma samples were extracted by methyl tertiary butyl ether, centrifuged, and the upper layer was transferred to plastic injection vials with MeOH/water (50:50). An aliquot of the sample was then injected onto a high-pressure liquid chromatography with tandem mass spectrometry triple quadrupole mass spectrometer (Sciex API-5500). The analytical column was a Unison CK-218, 3 μm particle size HPLC column (50×2 mm) from Imtakt USA (Portland, OR). […] Pharmacokinetic and Statistical Methods. […] This was used to calculate the half-life (t1/2). The area under the plasma concentration curve from time 0 until the last nonzero point was determined by the linear trapezoidal method. To this was added the residual area, calculated as the final nonzero concentration divided by β, yielding the total area under the plasma concentration curve extrapolated to infinity (AUC). Also tabulated was the observed maximum plasma concentration (Cmax). Variables were aggregated as arithmetic mean and SD."}, "[2]": {"assay": "Plasma ranolazine pharmacokinetics before, during and after posaconazole in normal-weight and obese subjects", "type": "in vivo", "conditions": "human, oral, 500 mg, Day 1, obese subjects, ranolazine 500 mg ER"}, "[3]": {"conditions": "human, plasma, oral, 500 mg, Day 1 (before posaconazole), normal-weight subjects, ranolazine 500 mg ER, mean ± SD"}, "[4]": {"conditions": "human, plasma, oral, 500 mg, Day 1 (before posaconazole), obese subjects, ranolazine 500 mg ER, mean ± SD"}, "[5]": {"conditions": "human, plasma, oral, 500 mg, Day 18 (3 days after last posaconazole dose), normal-weight subjects, ranolazine 500 mg ER, mean ± SD"}, "[6]": {"conditions": "human, plasma, oral, 500 mg, Day 18 (3 days after last posaconazole dose), obese subjects, ranolazine 500 mg ER, mean ± SD"}, "[7]": {"conditions": "human, plasma, oral, 500 mg, Day 22 (7 days after last posaconazole dose), normal-weight subjects, ranolazine 500 mg ER, mean ± SD"}, "[8]": {"conditions": "human, plasma, oral, 500 mg, Day 22 (7 days after last posaconazole dose), obese subjects, ranolazine 500 mg ER, mean ± SD"}, "[9]": {"conditions": "human, plasma, oral, 500 mg, Day 25 (10 days after last posaconazole dose), normal-weight subjects, ranolazine 500 mg ER, mean ± SD"}, "[10]": {"conditions": "human, plasma, oral, 500 mg, Day 25 (10 days after last posaconazole dose), obese subjects, ranolazine 500 mg ER, mean ± SD"}, "[11]": {"conditions": "human, plasma, oral, 500 mg, Day 29 (14 days after last posaconazole dose), normal-weight subjects, ranolazine 500 mg ER, mean ± SD"}, "[12]": {"conditions": "human, plasma, oral, 500 mg, Day 29 (14 days after last posaconazole dose), obese subjects, ranolazine 500 mg ER, mean ± SD"}, "[13]": {"conditions": "human, plasma, oral, Day 15 (last day of posaconazole 300 mg daily), normal-weight subjects, ranolazine 500 mg ER, mean ± SD"}, "[14]": {"conditions": "human, plasma, oral, Day 15 (last day of posaconazole 300 mg daily), obese subjects, ranolazine 500 mg ER, mean ± SD"}},
  "note": "Read-outs that look alike come from different tables or passages of the source. Marks after values point to notes of the source that are not given here.",
  "data": [
    {"smiles": "COc1ccccc1OCC(O)CN1CCN(CC(=O)Nc2c(C)cccc2C)CC1", "note": "(stereo not shown) [ranolazine]", "values": [
      {"measurement": "T1/2", "setting": "[1]; Day 1 (before posaconazole), normal-weight subjects, ranolazine 500 mg ER, mean ± SD", "value": "4.98 ± 1.50^a h"},
      {"measurement": "Time the interaction persisted above an AUC GMR of 1.5", "setting": "[1]; normal-weight subjects", "value": "at least 7 days"},
      {"measurement": "Time the interaction persisted above an AUC GMR of 1.5", "setting": "[1]; obese subjects", "value": "≥ 10", "unit": "days"},
      {"measurement": "Time the interaction persisted above a Cmax GMR of 1.5", "setting": "[1]; normal-weight subjects", "value": 7, "unit": "days"},
      {"measurement": "Time the interaction persisted above a Cmax GMR of 1.5", "setting": "[1]; obese subjects", "value": 10, "unit": "days"},
      {"measurement": "Time the lower bound of the AUC GMR 90% CI remained above 1.0", "setting": "[1]; both normal-weight and obese subjects", "value": 7, "unit": "days"},
      {"measurement": "AUC(0-inf)", "setting": "[1]; [3]", "value": "7080 ± 3600", "unit": "ng·h/mL"},
      {"measurement": "half-life", "setting": "[1]; [3]", "value": "4.99 ± 1.5", "unit": "h"},
      {"measurement": "Cmax", "setting": "[1]; human, plasma, oral, 500 mg, Day 1 (before posaconazole), normal-weight subjects, ranolazine 500 mg extended-release tablet, mean ± SD, read-out: Cmax", "value": "665 ± 318", "unit": "ng/mL"},
      {"measurement": "AUC(0-inf)", "setting": "[1]; [4]", "value": "8130 ± 4840", "unit": "ng·h/mL"},
      {"measurement": "half-life", "setting": "[1]; [4]", "value": "6.02 ± 1.75", "unit": "h"},
      {"measurement": "Cmax", "setting": "[1]; human, plasma, oral, 500 mg, Day 1 (before posaconazole), obese subjects, ranolazine 500 mg extended-release tablet, mean ± SD, read-out: Cmax", "value": "559 ± 271", "unit": "ng/mL"},
      {"measurement": "Cmax", "setting": "[1]; human, plasma, oral, 500 mg, Day 1, normal-weight subjects, ranolazine 500 mg ER, read-out: Geometric mean Cmax", "value": "665 ± 318", "unit": "ng/mL"},
      {"measurement": "AUC(0-inf)", "setting": "[1]; [5]", "value": "17300 ± 10300", "unit": "ng·h/mL"},
      {"measurement": "half-life", "setting": "[1]; [5]", "value": "5.73 ± 1.53", "unit": "h"},
      {"measurement": "Cmax", "setting": "[1]; human, plasma, oral, 500 mg, Day 18 (3 days after last posaconazole dose), normal-weight subjects, ranolazine 500 mg ER, mean ± SD, read-out: Cmax", "value": "1190 ± 469", "unit": "ng/mL"},
      {"measurement": "AUC(0-inf)", "setting": "[1]; [6]", "value": "19300 ± 14200", "unit": "ng·h/mL"},
      {"measurement": "half-life", "setting": "[1]; [6]", "value": "7.93 ± 2.98", "unit": "h"},
      {"measurement": "Cmax", "setting": "[1]; human, plasma, oral, 500 mg, Day 18 (3 days after last posaconazole dose), obese subjects, ranolazine 500 mg ER, mean ± SD, read-out: Cmax", "value": "1100 ± 502", "unit": "ng/mL"},
      {"measurement": "AUC(0-inf)", "setting": "[1]; [7]", "value": "13400 ± 6250", "unit": "ng·h/mL"},
      {"measurement": "half-life", "setting": "[1]; [7]", "value": "6.47 ± 3.14", "unit": "h"},
      {"measurement": "Cmax", "setting": "[1]; human, plasma, oral, 500 mg, Day 22 (7 days after last posaconazole dose), normal-weight subjects, ranolazine 500 mg ER, mean ± SD, read-out: Cmax", "value": "974 ± 400", "unit": "ng/mL"},
      {"measurement": "AUC(0-inf)", "setting": "[1]; [8]", "value": "15900 ± 11800", "unit": "ng·h/mL"},
      {"measurement": "half-life", "setting": "[1]; [8]", "value": "6.09 ± 2.1", "unit": "h"},
      {"measurement": "Cmax", "setting": "[1]; human, plasma, oral, 500 mg, Day 22 (7 days after last posaconazole dose), obese subjects, ranolazine 500 mg ER, mean ± SD, read-out: Cmax", "value": "1060 ± 508", "unit": "ng/mL"},
      {"measurement": "AUC(0-inf)", "setting": "[1]; [9]", "value": "9380 ± 4590", "unit": "ng·h/mL"},
      {"measurement": "half-life", "setting": "[1]; [9]", "value": "5.05 ± 1.82", "unit": "h"},
      {"measurement": "Cmax", "setting": "[1]; human, plasma, oral, 500 mg, Day 25 (10 days after last posaconazole dose), normal-weight subjects, ranolazine 500 mg ER, mean ± SD, read-out: Cmax", "value": "928 ± 482", "unit": "ng/mL"},
      {"measurement": "AUC(0-inf)", "setting": "[1]; [10]", "value": "13800 ± 10600", "unit": "ng·h/mL"},
      {"measurement": "half-life", "setting": "[1]; [10]", "value": "6.07 ± 2.1", "unit": "h"},
      {"measurement": "Cmax", "setting": "[1]; human, plasma, oral, 500 mg, Day 25 (10 days after last posaconazole dose), obese subjects, ranolazine 500 mg ER, mean ± SD, read-out: Cmax", "value": "976 ± 487", "unit": "ng/mL"},
      {"measurement": "AUC(0-inf)", "setting": "[1]; [11]", "value": "8570 ± 3800", "unit": "ng·h/mL"},
      {"measurement": "half-life", "setting": "[1]; [11]", "value": "4.45 ± 1.38", "unit": "h"},
      {"measurement": "Cmax", "setting": "[1]; human, plasma, oral, 500 mg, Day 29 (14 days after last posaconazole dose), normal-weight subjects, ranolazine 500 mg ER, mean ± SD, read-out: Cmax", "value": "751 ± 276", "unit": "ng/mL"},
      {"measurement": "AUC(0-inf)", "setting": "[1]; [12]", "value": "10200 ± 7940", "unit": "ng·h/mL"},
      {"measurement": "half-life", "setting": "[1]; [12]", "value": "6.38 ± 3.05", "unit": "h"},
      {"measurement": "Cmax", "setting": "[1]; human, plasma, oral, 500 mg, Day 29 (14 days after last posaconazole dose), obese subjects, ranolazine 500 mg ER, mean ± SD, read-out: Cmax", "value": "719 ± 333", "unit": "ng/mL"},
      {"measurement": "AUC", "setting": "[1]; human, plasma, oral, 500 mg, Geometric mean AUC for ranolazine, Day 1, normal-weight subjects, ranolazine 500 mg ER", "value": 6450, "unit": "ng·h/mL"},
      {"measurement": "AUC(0-inf)", "setting": "[1]; [13]", "value": "27500 ± 14900", "unit": "ng·h/mL"},
      {"measurement": "half-life", "setting": "[1]; [13]", "value": "9.54 ± 4.3", "unit": "h"},
      {"measurement": "Cmax", "setting": "[1]; human, plasma, oral, Day 15 (last day of posaconazole 300 mg daily), normal-weight subjects, ranolazine 500 mg ER, mean ± SD, read-out: Cmax", "value": "1430 ± 666", "unit": "ng/mL"},
      {"measurement": "AUC(0-inf)", "setting": "[1]; [14]", "value": "25800 ± 21600", "unit": "ng·h/mL"},
      {"measurement": "half-life", "setting": "[1]; [14]", "value": "8.78 ± 5.58", "unit": "h"},
      {"measurement": "Cmax", "setting": "[1]; human, plasma, oral, Day 15 (last day of posaconazole 300 mg daily), obese subjects, ranolazine 500 mg ER, mean ± SD, read-out: Cmax", "value": "1180 ± 512", "unit": "ng/mL"},
      {"measurement": "Cmax", "setting": "[2]; read-out: Geometric mean Cmax", "value": "559 ± 271", "unit": "ng/mL"},
      {"measurement": "AUC", "setting": "[2]; Geometric mean AUC for ranolazine", "value": 6960, "unit": "ng·h/mL"}
    ]}
  ]
}
